Results on three compounds are retold here after BindingDB's records for doi:10.1021/jm0502891 (Inotek Pharmaceuticals, 2005).

Molecules are shown by their SMILES.

Poly [ADP-ribose] polymerase 1, sequence (P09874 whole entry): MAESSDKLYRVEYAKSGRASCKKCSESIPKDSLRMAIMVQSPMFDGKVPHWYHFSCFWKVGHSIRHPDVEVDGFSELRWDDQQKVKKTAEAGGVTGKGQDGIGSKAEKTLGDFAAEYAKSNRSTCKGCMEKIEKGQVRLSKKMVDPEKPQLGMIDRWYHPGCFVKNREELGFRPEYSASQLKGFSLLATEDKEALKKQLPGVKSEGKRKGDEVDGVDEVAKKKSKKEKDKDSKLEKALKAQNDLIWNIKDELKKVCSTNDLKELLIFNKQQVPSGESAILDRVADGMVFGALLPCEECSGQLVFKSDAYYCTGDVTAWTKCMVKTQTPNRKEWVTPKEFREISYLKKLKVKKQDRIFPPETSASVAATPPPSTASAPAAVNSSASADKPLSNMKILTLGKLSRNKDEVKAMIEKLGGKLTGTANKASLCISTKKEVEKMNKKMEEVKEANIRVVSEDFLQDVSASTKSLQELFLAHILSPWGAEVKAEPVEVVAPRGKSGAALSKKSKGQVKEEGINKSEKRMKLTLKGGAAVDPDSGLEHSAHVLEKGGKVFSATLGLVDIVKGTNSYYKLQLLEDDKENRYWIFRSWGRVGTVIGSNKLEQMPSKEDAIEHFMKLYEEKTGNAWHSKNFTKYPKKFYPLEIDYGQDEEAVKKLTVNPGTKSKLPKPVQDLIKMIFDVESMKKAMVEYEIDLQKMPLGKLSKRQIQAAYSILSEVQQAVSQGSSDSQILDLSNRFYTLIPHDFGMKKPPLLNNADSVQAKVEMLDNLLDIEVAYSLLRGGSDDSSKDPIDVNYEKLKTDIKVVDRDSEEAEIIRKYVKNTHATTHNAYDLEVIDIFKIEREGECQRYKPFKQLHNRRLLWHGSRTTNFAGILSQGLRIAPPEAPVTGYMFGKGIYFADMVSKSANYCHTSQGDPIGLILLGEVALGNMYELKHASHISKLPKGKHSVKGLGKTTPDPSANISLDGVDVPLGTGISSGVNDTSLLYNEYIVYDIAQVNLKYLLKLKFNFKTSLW

For the assay, the target named is Poly [ADP-ribose] polymerase 1 (Homo sapiens, UniProt P09874). The assay is described as follows: PARP ELISA Assay. To be noted: pH 8; 22 °C. As for the experimental part:
The assay was performed in 96-well ELISA plates according to instructions provided with a commercially available PARP inhibition assay kit (Trevigen, Gaithersburg, MD). After incubation, incorporated biotin was detected by peroxidase-conjugated streptavidin and TACS Sapphire substrate.
(ELISA stands for enzyme-linked immunosorbent assay.)
A word on the IC50: it is the concentration that inhibits the measured activity by half. Read a low IC50 as inhibition by little substance. Turning to `C[N+]1(CCCNS(=O)(=O)c2ccc3c(c2)Cc2c-3[nH]c(=O)c3ccccc23)CCOCC1` [4-methyl-4-[3-({8-oxo-9-azatetracyclo[8.7.0.0^{2,7}.0^{11,16}]heptadeca-1(10),2(7),3,5,11(16),12,14-heptaene-14-}sulfonamido)propyl]morpholin-4-ium iodide], the midpoint of inhibition, the IC50, lay at 0.8 µM.
Consider `O=C(CCCN1CCOCC1)Nc1ccc2c(c1)-c1[nH]c(=O)c3ccccc3c1C2` [4-(morpholin-4-yl)-N-{8-oxo-9-azatetracyclo[8.7.0.0^{2,7}.0^{11,16}]heptadeca-1(10),2(7),3,5,11(16),12,14-heptaen-13-yl}butanamide], for which the half-maximal inhibitory concentration (IC50) was determined as 0.4 µM.
As to `O=c1[nH]c2c(c3ccccc13)Cc1cc(S(=O)(=O)NN3CCOCC3)c(F)cc1-2` [13-fluoro-N-(morpholin-4-yl)-8-oxo-9-azatetracyclo[8.7.0.0^{2,7}.0^{11,16}]heptadeca-1(10),2(7),3,5,11(16),12,14-heptaene-14-sulfonamide], the IC50 came to 0.45 µM.
